Structures can show the parent of a compound that is named as a salt.
How the values were obtained:
[1] = system: A431 cells (human epidermoid carcinoma); assay: In vitro tumor cell proliferation assay (Cell Titer-Glo luminescent cell viability), A431; type: cell-based; conditions: A-431, 72 h, 72 hours of drug exposure, ATP luminescence readout, read-out: IC50, anti-proliferative activity (inhibition of cell proliferation)
Outline: (§1)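 CellTiter-Glo luminescence (ATP content of metabolically active cells) after 72 h compound exposure at 37° C gave IC50s.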

[2] = system: BT474 (human breast carcinoma); assay: In vitro tumor cell proliferation assay (Cell Titer-Glo luminescent cell viability), BT474; type: cell-based; conditions: BT-474, 72 h, BT474 cells, 72 hours of drug exposure, ATP luminescence readout, read-out: IC50, anti-proliferative activity (inhibition of cell proliferation)
Outline: as §1

SMILES | IC50 [1] [µM] | IC50 [2] [µM]
CS(=O)(=O)CCNCCn1ncc2c1CCc1c-2sc2ncnc(Nc3ccc(OCc4ccccn4)c(Cl)c3)c12 [Example 114, N-[3-chloro-4-(pyridin-2-ylmethoxy)phenyl]-3-(2-{[2-(methylsulfonyl)ethyl]amino}ethyl)-4,5-dihydro-3H-pyrimido[5′,4′:4,5]thieno[2,3-e]indazol-6-amine] | ≤ 5 | ≤ 1
COC[C@H]1CCCN1CCn1cc2c(n1)CCc1c-2sc2ncnc(Nc3ccc(F)c(Cl)c3)c12 [Example 28, N-(3-chloro-4-fluorophenyl)-2-{2-[(2R)-2-(methoxymethyl)pyrrolidin-1-yl]ethyl}-4,5-dihydro-2H-pyrimido[5′,4′:4,5]thieno[2,3-e]indazol-6-amine] | ≤ 5 | ≤ 5
OCCN(CCO)C[C@@H](O)Cn1ncc2c1CCc1c-2sc2ncnc(Nc3ccc(OCc4cccc(F)c4)c(Cl)c3)c12 [Example 172, (2R)-1-[bis(2-hydroxyethyl)amino]-3-[6-({3-chloro-4-[(3-fluorobenzyl)oxy]phenyl}amino)-4,5-dihydro-3H-pyrimido[5′,4′:4,5]thieno[2,3-e]indazol-3-yl]propan-2-ol trifluoroacetate (salt)] | ≤ 50 | ≤ 1
CCCn1cc2c(n1)CCc1c-2sc2ncnc(Nc3ccc(OCc4cccc(F)c4)c(Cl)c3)c12 [Example 130, N-{3-chloro-4-[(3-fluorobenzyl)oxy]phenyl}-2-propyl-4,5-dihydro-2H-pyrimido[5′,4′:4,5]thieno[2,3-e]indazol-6-amine trifluoroacetate] | ≤ 50 | ≤ 5
CN1CCN(CCn2cc3c(n2)CCc2c-3sc3ncnc(Nc4ccc(OCc5cccc(F)c5)c(Cl)c4)c23)CC1 [Example 62, N-{3-chloro-4-[(3-fluorobenzyl)oxy]phenyl}-2-[2-(4-methylpiperazin-1-yl)ethyl]-4,5-dihydro-2H-pyrimido[5′,4′:4,5]thieno[2,3-e]indazol-6-amine] | ≤ 5 | ≤ 1
Clc1cc(Nc2ncnc3sc4c(c23)CCc2nn(CCN3CCOCC3)cc2-4)ccc1OCc1ccccn1 [Example 106, N-[3-chloro-4-(pyridin-2-ylmethoxy)phenyl]-2-(2-morpholin-4-ylethyl)-4,5-dihydro-2H-pyrimido[5′,4′:4,5]thieno[2,3-e]indazol-6-amine] | ≤ 50 | ≤ 1
Fc1ccc(Nc2ncnc3sc4c(c23)CCc2nn(CCN3CCSCC3)cc2-4)cc1Cl [Example 35, N-(3-chloro-4-fluorophenyl)-2-(2-thiomorpholin-4-ylethyl)-4,5-dihydro-2H-pyrimido[5′,4′:4,5]thieno[2,3-e]indazol-6-amine] | ≤ 5 | ≤ 5
Cc1cccc(COc2ccc(Nc3ncnc4sc5c(c34)CCc3n[nH]cc3-5)cc2Cl)n1 [Example 120, N-{3-chloro-4-[(6-methylpyridin-2-yl)methoxy]phenyl}-4,5-dihydro-2H-pyrimido[5′,4′:4,5]thieno[2,3-e]indazol-6-amine] | ≤ 5 | ≤ 5
CC(C)(C)[Si](C)(C)OCCn1cc2c(n1)CCc1c-2sc2ncnc(Nc3ccc(OCc4ccccc4)c(Cl)c3)c12 [Example 123, N-[4-(benzyloxy)-3-chlorophenyl]-2-(2-{[tert-butyl(dimethyl)silyl]oxy}ethyl)-4,5-dihydro-2H-pyrimido[5′,4′:4,5]thieno[2,3-e]indazol-6-amine] | ≤ 50 | ≤ 5
OCCn1cc2c(n1)CCc1c-2sc2ncnc(Nc3ccc(OCc4ccccc4)c(Cl)c3)c12 [Example 124, 2-(6-{[4-(benzyloxy)-3-chlorophenyl]amino}-4,5-dihydro-2H-pyrimido[5′,4′:4,5]thieno[2,3-e]indazol-2-yl)ethanol] | ≤ 50 | ≤ 1
O[C@H](CN1CCNCC1)Cn1cc2c(n1)CCc1c-2sc2ncnc(Nc3ccc(OCc4cccc(F)c4)c(Cl)c3)c12 [Example 152, (2R)-1-[6-({3-chloro-4-[(3-fluorobenzyl)oxy]phenyl}amino)-4,5-dihydro-2H-pyrimido[5′,4′:4,5]thieno[2,3-e]indazol-2-yl]-3-piperazin-1-ylpropan-2-ol trifluoroacetate (salt)] | ≤ 50 | ≤ 1
CN1CCN(CCn2cc3c(n2)CCc2c-3sc3ncnc(Nc4ccc5c(cnn5Cc5ccccc5)c4)c23)CC1 [Example 39, N-(1-benzyl-1H-indazol-5-yl)-2-[2 (4-methylpiperazin-1-yl)ethyl]-4,5-dihydro-2H-pyrimido[5′,4′:4,5]thieno[2,3-e]indazol-6-amine] | ≤ 50 | ≤ 1
O=C(Cn1cc2c(n1)CCc1c-2sc2ncnc(Nc3ccc(OCc4cccc(F)c4)c(Cl)c3)c12)N(CCO)CCO [Example 187, 2-[6-({3-chloro-4-[(3-fluorobenzyl)oxy]phenyl}amino)-4,5-dihydro-2H-pyrimido[5′,4′:4,5]thieno[2,3-e]indazol-2-yl]-N,N-bis(2-hydroxyethyl)acetamide] | ≤ 50 | ≤ 1
OCCNCCn1cc2c(n1)CCc1c-2sc2ncnc(Nc3ccc(OCc4cccc(F)c4)c(Cl)c3)c12 [Example 61, 2-({2-[6-({3-chloro-4-[(3-fluorobenzyl)oxy]phenyl}amino)-4,5-dihydro-2H-pyrimido[5′,4′:4,5]thieno[2,3-e]indazol-2-yl]ethyl}amino)ethanol] | ≤ 5 | ≤ 1
NC[C@@H](O)Cn1ncc2c1CCc1c-2sc2ncnc(Nc3ccc(OCc4cccc(F)c4)c(Cl)c3)c12 [Example 162, (2R)-1-amino-3-[6-({3-chloro-4-[(3-fluorobenzyl)oxy]phenyl}amino)-4,5-dihydro-3H-pyrimido[5′,4′:4,5]thieno[2,3-e]indazol-3-yl]propan-2-ol trifluoroacetate (salt)] | ≤ 50 | ≤ 5
O[C@H](CN1CCCC1)Cn1cc2c(n1)CCc1c-2sc2ncnc(Nc3ccc(OCc4cccc(F)c4)c(Cl)c3)c12 [Example 149, (2R)-1-[6-({3-chloro-4-[(3-fluorobenzyl)oxy]phenyl}amino)-4,5-dihydro-2H-pyrimido[5′,4′:4,5]thieno[2,3-e]indazol-2-yl]-3-pyrrolidin-1-ylpropan-2-ol trifluoroacetate (salt)] | ≤ 50 | ≤ 1

More lines, now with the values ahead:

IC50 [1] [µM] | IC50 [2] [µM] | SMILES
≤ 5 | ≤ 1 | Fc1cccc(Cn2ncc3cc(Nc4ncnc5sc6c(c45)CCc4c-6cnn4CCn4ccnc4)ccc32)c1 [Example 291, N-[1-(3-fluorobenzyl)-1H-indazol-5-yl]-3-[2-(1H-imidazol-1-yl)ethyl]-4,5-dihydro-3H-pyrimido[5′,4′:4,5]thieno[2,3-e]indazol-6-amine]
≤ 50 | ≤ 1 | CS(=O)(=O)CCNC(=O)Cn1ncc2c1CCc1c-2sc2ncnc(Nc3ccc(OCc4cccc(F)c4)c(Cl)c3)c12 [Example 204, 2-[6-({3-chloro-4-[(3-fluorobenzyl)oxy]phenyl}amino)-4,5-dihydro-3H-pyrimido[5′,4′:4,5]thieno[2,3-e]indazol-3-yl]-N-[2-(methylsulfonyl)ethyl]acetamide]
≤ 5 | ≤ 5 | CN1CCN(CCn2cc3c(n2)CCc2c-3sc3ncnc(Nc4ccc(OCc5ccc(F)cc5)c(Cl)c4)c23)CC1 [Example 326, N-{3-chloro-4-[(4-fluorobenzyl)oxy]phenyl}-2-[2-(4-methylpiperazin-1-yl)ethyl]-4,5-dihydro-2H-pyrimido[5′,4′:4,5]thieno[2,3-e]indazol-6-amine]
≤ 50 | ≤ 5 | C[N+]1(C)CCC(n2cc3c(n2)CCc2c-3sc3ncnc(Nc4ccc(OCc5cccc(F)c5)c(Cl)c4)c23)CC1 [Example 225, 4-[6-({3-chloro-4-[(3-fluorobenzyl)oxy]phenyl}amino)-4,5-dihydro-2H-pyrimido[5′,4′:4,5]thieno[2,3-e]indazol-2-yl]-1,1-dimethylpiperidinium trifluoroacetate]
≤ 5 | ≤ 1 | CC(C)CCN1CCC(CCn2cc3c(n2)CCc2c-3sc3ncnc(Nc4ccc(OCc5cccc(F)c5)c(Cl)c4)c23)CC1 [Example 256, N-{3-chloro-4-[(3-fluorobenzyl)oxy]phenyl}-2-{2-[1-(3-methylbutyl)piperidin-4-yl]ethyl}-4,5-dihydro-2H-pyrimido[5′,4′:4,5]thieno[2,3-e]indazol-6-amine]
≤ 50 | ≤ 1 | CNC(=O)Cn1ncc2c1CCc1c-2sc2ncnc(Nc3ccc(OCc4cccc(F)c4)c(Cl)c3)c12 [Example 196, 2-[6-({3-chloro-4-[(3-fluorobenzyl)oxy]phenyl}amino)-4,5-dihydro-3H-pyrimido[5′,4′:4,5]thieno[2,3-e]indazol-3-yl]-N-methylacetamide]
≤ 5 | ≤ 1 | CN1CCC(n2cc3c(n2)CCc2c-3sc3ncnc(Nc4ccc(OCc5cccc(F)c5)c(Cl)c4)c23)CC1 [Example 228, N-{3-chloro-4-[(3-fluorobenzyl)oxy]phenyl}-2-(1-methylpiperidin-4-yl)-4,5-dihydro-2H-pyrimido[5′,4′:4,5]thieno[2,3-e]indazol-6-amine]
≤ 5 | ≤ 1 | OC1CCN(CCn2cc3c(n2)CCc2c-3sc3ncnc(Nc4ccc5c(cnn5Cc5cccc(F)c5)c4)c23)C1 (centres unmarked) [Example 286, 1-[2-(6-{[1-(3-fluorobenzyl)-1H-indazol-5-yl]amino}-4,5-dihydro-2H-pyrimido[5′,4′:4,5]thieno[2,3-e]indazol-2-yl)ethyl]pyrrolidin-3-ol]
≤ 5 | ≤ 1 | Fc1cccc(COc2ccc(Nc3ncnc4sc5c(c34)CCc3nn(CC4CCNCC4)cc3-5)cc2Cl)c1 [Example 232, N-{3-chloro-4-[(3-fluorobenzyl)oxy]phenyl}-2-(piperidin-4-ylmethyl)-4,5-dihydro-2H-pyrimido[5′,4′:4,5]thieno[2,3-e]indazol-6-amine]

Source: patent US8207172B2 (Bayer Intellectual Property GmbH, priority 2004, dated 2012)
